Experimental data from US20030109552A1, “Use of insulin sensitisers for treating renal diseases” (SmithKline Beecham p.l.c., priority 1994, published 2003).

Key:
Assay type in all cases: in vivo, rat
[1] = test system: obese Zucker fa/fa rats; assay: Renal histopathology in obese Zucker fa/fa rats, 3 months dietary administration; set-up: key to Chronic Nephropathy (histopathological severity, kidney): 0: None seen; ±: Minimal; +: Mild; ++: Moderate; +++: Marked
Procedure: Obese Zucker rats are known to develop chronic nephropathy in addition to hyperlipidaemia, hyperinsulinaemia and peripheral insulin resistance (Kasiske et al 1985).
5-[4-[2-(N-methyl-N-(2-pyridyl)amino)ethoxy]benzyl]thiazolidine-2,4-dione (herein after referred to as ‘test compound’) was administered to 2-3 month old obese Zucker fa/fa rats by dietary administration to provide a daily dose over a period of 3 months ranging from 2.0-7.0 μmole/kg body weight. A group of age-matched obese Zucker fa/fa rats were given the same diet without the addition of the test compound, as was a group of lean Fa/? rats. At the end of the study, all of the control Zucker fa/fa rats had chronic nephropathy which involved dilated tubules, atrophied or hyperplastic tubular epithelial cells, thickened tubular basement membranes, segmented glomeruli or global glomerulosclerosis.

[2] = test system: Zucker fatty (fa/fa) rats; assay: Systolic blood pressure (tail cuff) in Zucker fatty rats, 9 month study
Procedure: (§1) A second study was performed in Zucker rats over a period of 9 months to investigate the longitudinal effects of the drug on systolic blood pressure and various indices of renal function, two of which are exemplified here. In one arm of the study, the drug was given in the diet (50 μmole/kg of diet) from aged 6-7weeks in Zucker fatty (fa/fa) rats, whilst in a second arm of the study, drug treatment as above was delayed until proteinuria had become established after 4 months, indicative of structural damage already present in the kidneys. A third group of Zucker fatty rats and a further group of lean rats were given diet alone throughout the period of study.
(§2) After dosing with the test compound, at monthly intervals measurements were made of systolic blood pressure, urinary total protein and urinary N-acetyl β-D-glucosaminidase (NAG) activity.
Rats were enclosed in custom-built restrainers and placed on a shelf in a warming cabinet, whose temperature was controlled at approximately 30° C. An inflatable cuff with integral pulse sensor was attached to the tail of each rat. After warming for 20-30 min the tail cuff was inflated and deflated automatically and a measurement of systolic blood pressure made using an IITC Non-Invasive Blood Pressure Monitor. This cycle was repeated several times for each rat until stable values of blood pressure were obtained.

[3] = test system: Zucker fatty (fa/fa) rats; assay: Urinary total protein (Bio-Rad protein assay, 24 h urine) in Zucker fatty rats, 9 month study
Procedure: A second study was performed in Zucker rats over a period of 9 months to investigate the longitudinal effects of the drug on systolic blood pressure and various indices of renal function, two of which are exemplified here. […] A third group of Zucker fatty rats and a further group of lean rats were given diet alone throughout the period of study. After dosing with the test compound, at monthly intervals measurements were made of systolic blood pressure, urinary total protein and urinary N-acetyl β-D-glucosaminidase (NAG) activity. Twenty-four hour urine collections, made in metabolism cages, were aliquoted and frozen at −70° C. until required for assay. Urinary protein concentration was measured using the Bio-Rad protein assay as modified for use in a 96-well microtitre plate. The assay is a dye-binding assay based on the differential colour change of a dye in response to various concentrations of protein (Bradford, Anal. Biochem., 72, 248, 1976). After a period of incubation with Dye Reagent, diluted urine samples are read at an optical density of 595 nm using a Molecular Devices multiplate reader.

[4] = test system: Zucker fatty (fa/fa) rats; assay: Urinary N-acetyl β-D-glucosaminidase (NAG) activity in Zucker fatty rats, 9 month study
Procedure: as §1, §2
Twenty-four hour urine collections, made in metabolism cages, were aliquoted and frozen at −70° C. until required for assay.
NAG activity was assayed using a reagent kit on a Hitachi 717 analyser (both supplied by Boehringer Mannheim UK, Lewes). Enzyme activity was measured by monitoring the rate of chlorophenol (570 nm) released from the substrate chlorophenol red-β-D-glucosaminide.

[5] = Zucker fatty (fa/fa) rats treated from the age of 6-7 weeks for 9 months via the diet
[6] = drug treatment commenced after proteinuria had become established

CN(CCOc1ccc(CC2SC(=O)NC2=O)cc1)c1ccccn1 (stereo not drawn) [Test Compound, 5-[4-[2-(N-methyl-N-(2-pyridyl)amino)ethoxy]benzyl]thiazolidine-2,4-dione]
Chronic Nephropathy (histopathological severity, kidney) ([1]; individual fatty Zucker rats, test compound in diet 2.0-7.0 μmole/kg body weight daily): ++
incidence and degree of chronic nephropathy compared to control Zucker fa/fa rats ([1]; obese Zucker fa/fa rats, diet, 2.0-7.0 μmole/kg daily): reduction in the incidence and degree of chronic nephropathy
hydronephrosis seen in treated rats ([1]; obese Zucker fa/fa rats, diet, 2.0-7.0 μmole/kg daily, controls 4/9): No hydronephrosis was seen
development of hypertension [2, 5]: prevented the development of hypertension
systolic blood pressure (further rise) [2, 6]: prevented from rising further
rate of development of proteinuria [3, 5]: markedly reduced
rate of increase in the urinary protein concentration [3, 6]: marked reduction of the rate of increase
elevation of urinary NAG activity [4, 5]: markedly reduced
urinary NAG activity (further rise) [4, 6]: prevented from rising further
